{
  "source": "patent US10111902B2",
  "about": "“Polymers for reversing heparin-based anticoagulation” (University of British Columbia, priority 2011, dated 2018)",
  "key": {"blood coagulation": {"test_system": "blood coagulation", "assay": "Blood coagulation: PT and APTT in platelet poor plasma", "type": "biochemical, human", "conditions": "FIG. 15, compared to saline", "procedure": "The present example examines blood coagulation in the presence of a heparin binding polymer. JNK-1 polymers were tested for blood compatibility using the activated partial thromboplastin time (APTT) and the prothrombin time (PT) in fresh human plasma. PT can be used to evaluate the extrinsic and common coagulation pathway and the results are expressed in seconds required for a fibrin clot to form after tissue thromboplastin (innovin) has been added to the blood sample. APTT is used to evaluate the intrinsic and common coagulation pathway. The results are expressed in seconds required for a fibrin clot to form in the plasma sample after a partial thromboplastin reagent (actin) and calcium chloride have been added to the sample. Blood was mixed with a measured amount of citrate and the plasma was obtained by centrifugation, using methods known in the art.\nA final JNK-1 concentration of 10 mg/ml is used at in a 9:1 dilution of plasma at 37° C. Control experiments were done adding identical volumes of saline solution. JNK-1 polymer solutions were incubated with platelet poor plasma for 5 minutes at 37° C. before adding PT and APTT reagents.\nBlood coagulation is measured using APTT."}, "Tinzaparin": {"test_system": "Tinzaparin", "assay": "Anti Xa neutralization of Tinzaparin in platelet poor plasma", "type": "biochemical, human", "conditions": "One IU LMWH per ml in platelet poor plasma", "procedure": "(§1) Both JNK-1 and JNK-2 result in greater neutralization of unfractionated heparin at two doses (50 and 100 μg/ml), Tinzaparin (LMWH) and Enoxaparin (LMWH)."}, "platelets": {"test_system": "platelets", "assay": "Platelet activation of 23 kDa HBSPCM polymers (CD62-PE, flow cytometry)", "type": "cell-based", "conditions": "PRP, 0.5 mg/mL, 1 h, 37° C", "procedure": "The level of platelet activation was quantified by flow cytometry. Ninety microliter of PRP was incubated at 37° C. with 10 μL of 5 mg/mL of polymer or protamine (final concentration 0.5 mg/mL). After 1 h, aliquots of the incubation mixtures were removed for assessment of the platelet activation state. Five microliter of post-incubation platelet/polymer or protamine mixture, diluted in HEPES buffer, was incubated for 20 minutes in the dark with 5 μL of monoclonal anti-CD62-PE (Immunotech). The samples were then stopped with 0.5 mL of phosphate-buffered saline solution. The level of platelet activation was analyzed in a BD FACSCanto II flow cytometer (Becton Dickinson) by gating platelets specific events based on their FITC-CD42 fluorescence and light scattering profile. Activation of platelets was expressed as the percentage of platelet activation marker CD62-PE fluorescence detected in the 10,000 total events counted. Duplicate measurements were done, the mean of which was reported. Controls were done for the flow cytometric analysis. One U/ml of bovine thrombin (Sigma) was used as a positive control, and PE conjugated goat anti-mouse IgG polyclonal antibodies (Immunotech) was used as the non-specific binding control."}, "UFH [1]": {"test_system": "UFH", "assay": "Anti Xa neutralization of UFH in platelet poor plasma", "type": "biochemical, human", "conditions": "One IU UFH per ml in platelet poor plasma", "procedure": "as §1"}, "[2]": {"test_system": "unfractionated heparin (UFH)", "assay": "APTT assay, neutralization of UFH in citrate plasma", "type": "biochemical, human", "procedure": "In one example, a heparin binding synthetic polyvalent cationic macromolecule JNK-1 can neutralize UFH in human blood under in vitro conditions (FIGS. 4A and 4B). Citrate plasma was anti-coagulated with 1.0 U/ml UFH (UFH control) and was titrated with different concentrations of JNK-1 polymers (0.009 to 8.69 nanomoles/ml) and protamine (0.2 to 222.2 nanomoles/ml).\nCitrate plasma was anticoagulated with 2.0 U/ml UFH, Enoxaparin and Tinzaparin and was treated with different concentrations of the HBSPCM polymers and protamine (0.001 to 0.25 mg/ml). The APTT was measured for each sample.\nCitrate plasma was anticoagulated with UFH (2.0 IU/mL), Enoxaparin (2.0 IU/mL) and Tinzaparin (1.14 IU/mL) and was titrated with different concentrations of the HBSPCM polymers and protamine (0.001 to 0.25 mg/ml). The APTT was measured for each sample.\nAbility of HBSPCM polymers JNK-9, JNK-10 and JNK-11 was studied for the range of concentration from 0.01 to 0.25 mg/mL prepared in 0.15 M saline. Citrated blood was spun at 3000 RPM for 10 min to obtain platelet poor plasma (PPP). The PPP was then heparinized by adding 45 μL of heparin (UFH, LMWH etc.) to 2200 μL of PPP final concentration of 2.0 IU/mL for UFH and Tinzaparin and 1.14 IU/mL for Enoxaparin. Normal control was prepared by adding 25 μL of 0.15 M saline to 250 μL of PPP. 25 μL of each antidote solution (polymer or protamine) was added to 225 μL of heparinized PPP. 250 μL of APTT reagent (actin FSL) was then added and samples were incubated for 3 min at 37° C. 250 μL of normal control was combined with 250 μL of APTT reagent and also incubated for 3 min. 50 μL of 0.025M CaCl2 was added to 100 μL aliquots of normal control and sample (in triplicate). A heparinized control containing 225 μL of PPP and 25 μL of saline was also prepared and run similar to normal control."}, "UFH [3]": {"test_system": "UFH", "assay": "Thromboelastography (TEG), neutralization of UFH in whole blood", "type": "cell-based", "conditions": "human whole blood, UFH 0.5 U/ml, re-calcified at 37° C", "procedure": "This example examines thromboelastography in the presence of various heparin binders. Thromboelastography (TEG) provides an in vitro method for monitoring of the evolution of the viscoelastic properties and coagulation kinetics of blood as clotting proceeds. The principle components of the TEG are a cylindrical cup and a bob suspended in the cup from a weak torsion wire. The warmed cup oscillates over a 10 second period through an angle of 4° 45′. Blood is added and a torque is transmitted to the bob as the gel forms. The rate of clot formation, the strength of the clot, and the rate of clot lysis are reflected in the shape traced out by the maxima in the bob oscillation as a function of time (the trace of the TEG). […]\nTo carry out TEG experiments, citrate anti-coagulated whole blood with heparin or heparin derivatives added are incubated with buffered HBSPCM polymers (sodium citrate or saline) for 1 minute before recalcification at 37° C. Clot formation kinetics are monitored in a TEG machine (350 μl whole blood+35 μl polymer or control solution) at 37° C.\nThe coagulation time (FIG. 7A) and maximum clot strength, or maximum amplitude (MA) (FIG. 7B) are shown. Citrated whole blood was added to UFH or Tinzaparin (0.5 U/ml) and re-calcified at 37° C. in a TEG cup and monitored using a TEG machine. […]"}, "complement system": {"test_system": "complement system", "assay": "Complement activation, CH50 sheep erythrocyte lysis assay", "type": "biochemical", "conditions": "serum, 0.05 and 0.5 mg/mL, 1 h, 37° C", "procedure": "The level of complement activation was measured by a CH50 sheep erythrocyte lysis assay. Ten microliter of each of the 0.5 and 5 mg/mL polymers or protamine was mixed with 90 μL of serum for 1 h at 37° C. The final concentration of polymer/protamine to serum was 0.05 and 0.5 mg/mL. One mg/mL heat-activated human IgG and 5 mM EDTA, after mixing with serum, were the positive and negative controls, respectively, for the study. 60 μL of post-incubation serum/polymer or protamine mixture was diluted by 120 μL of GVB^2+ (CompTech). Seventy-five microliter of GVB^2+ diluted serum/polymer or protamine mixture was incubated for 1 h at 37° C. with 75 μL of Ab-sensitized sheep erythrocyte (CompTech). The reaction was stopped by addition of 300 μL cold GVB-EDTA to each sample. The samples were centrifuged and the optical density of supernatant was measured at 540 nm. One hundred percent lysis of the sheep erythrocyte was done by dH2O. The percentage of complement activation was calculated by 100-% lysis of sheep erythrocytes."}},
  "note": "Entries after “also recorded” stand apart in the source; their conditions may differ.",
  "data": [
    {"substance": "protamine", "values": [
      {"measurement": "blood coagulation (APTT biocompatibility)", "setting": "blood coagulation", "result": "different blood coagulation profile"},
      {"measurement": "Anti Xa Neutralization (%) of Tinzaparin at 100 μg/ml", "setting": "Tinzaparin", "result": "77 ± 1", "unit": "%"},
      {"measurement": "platelet activation (CD62-PE)", "setting": "platelets", "result": "significant levels of platelet activation"},
      {"measurement": "Anti Xa Neutralization (%) of UFH at 50 μg/ml", "setting": "UFH [1]; 50 μg/ml", "result": 84, "unit": "%"},
      {"measurement": "Anti Xa Neutralization (%) of UFH at 100 μg/ml", "setting": "UFH [1]; 100 μg/ml", "result": "85 ± 0", "unit": "%"},
      {"measurement": "UFH neutralization (APTT)", "setting": "[2]; citrate plasma, UFH 2.0 U/ml, polymers and protamine 0.001 to 0.25 mg/ml", "result": "neutralizes UFH and LMWH only in the narrow concentration range"},
      {"measurement": "anticoagulant effect at higher concentration (APTT)", "setting": "[2]; heparinized citrate plasma, 0.001 to 0.25 mg/ml", "result": "possesses anticoagulant activity"},
      {"measurement": "anticoagulant effect at high concentration (APTT)", "setting": "[2]; heparinized human citrate plasma, high doses of antidote", "result": "had an anticoagulant effect"},
      {"measurement": "UFH neutralization (APTT)", "setting": "[2]; human citrate plasma anti-coagulated with UFH (1.0 U/ml), titrated with JNK-1 0.009 to 8.69 or protamine 0.2 to 222.2 nanomoles/ml", "result": "complete neutralization occurred at a higher dosage of protamine; also recorded: acted with less efficiency for UFH within a smaller dose window"},
      {"measurement": "UFH neutralization (TEG: coagulation time, clot strength)", "setting": "UFH [3]", "result": "not effective at neutralizing UFH or LMWH Tinzaparin and Enoxaparin in terms of the time to clot formation"},
      {"measurement": "complement activation (CH50)", "setting": "complement system", "result": "significant complement activation"}
    ]}
  ]
}
